# Target: T1, PTP-1B (Homo sapiens, UniProt P18031)
# T1 construct: PTP-1B (purified, 1 mg/mL) as a 1:250 dilution
# T1 sequence (P18031 1-321 limits assumed): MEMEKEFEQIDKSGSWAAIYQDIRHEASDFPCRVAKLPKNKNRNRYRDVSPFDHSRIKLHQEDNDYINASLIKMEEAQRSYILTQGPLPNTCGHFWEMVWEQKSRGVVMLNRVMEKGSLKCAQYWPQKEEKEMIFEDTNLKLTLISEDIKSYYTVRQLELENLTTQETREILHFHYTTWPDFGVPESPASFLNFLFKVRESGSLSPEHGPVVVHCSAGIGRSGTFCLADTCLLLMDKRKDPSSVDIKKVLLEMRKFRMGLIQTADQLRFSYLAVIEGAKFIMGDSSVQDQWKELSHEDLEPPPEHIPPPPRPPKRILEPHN
# Test: pNPP assay for tyrosine phosphatase inhibitory activity
# Assay type: biochemical
# Settings: Table 1; pNPP substrate 10 mM, 30° C., 10 minutes, absorbance at 405 nm
# Experimental: The compounds provided herein are evaluated for biological activity as inhibitors of PTP-1B using, for example, a pNPP assay. Such an assay can be used to screen compounds for tyrosine phosphatase inhibitory activity as shown in Example 39.
# A 5× stock of pNPP (p-nitrophenol phosphate) substrate is prepared as 50 mM pNPP in assay buffer. Various tyrosine phosphatase solutions can be prepared as follows: • PTP-1B (purified, 1 mg/mL) as a 1:250 dilution (to a final concentration of 4:g/mL); • TC-PTP (NEB, 1000 units in 100:L) as a 1:50 dilution (to a final concentration of 2 U/10:L (4:g/mL)); • CD45 (Calbiochem, 20:g, 400 units in 100: L) as a 1 :50 dilution (to a final concentration of 0.8 U/10:L (4:g/mL)); • LAR (NEB, 1000 units in 200:L) as a 1:75 dilution (to a final concentration of 0.7 U/10:L (4:g/mL)); and • PTP-β (UBI, #14-350, 10,000 units, 40:g/571:L) as a 1:17.5 dilution (to a final concentration of 10 U/10:L (4:g/mL));
# The compound to be tested is prepared as 1:16.7 and 1:50 dilutions from stock in a total volume of 1 00:M DMSO to give final concentrations of 626 and 200:M. The reaction mixtures are prepared in a 96-well microtiter plate (on ice) as 55:L assay buffer, 5:L of the diluted compound (to a final concentration of 31.3 and 10:M), 20:L of the pNPP substrate solution (to a final concentration of 10 mM) and 20:L PTPase in assay buffer. The reactants are mixed well, the plate placed in a water bath at 30° C. and incubated for 10 minutes. The reaction is then terminated by adding 1 OO:L of 2M K2CO3 per well, and the absorbance is measured at 405 nm by conventional means.
# Unless otherwise indicated, this assay was used to determine activity for the selected compounds whose activity is recorded in Table 1 and Table 2.
row,Compound,IC50 [µM]
1,"CS(=O)(=O)c1ccc(-c2cnc(N(Cc3ccc(/C=C/C(=O)O)c(Br)c3)c3ccc(Cl)c(Cl)c3)o2)cc1 [3-[2-Bromo-4-({(3,4-dichloro-phenyl)-(5-(4-methanesulfonyl-phenyl)-oxazol-2-yl]-amino}-methyl)-phenyl]-acrylic acid]",10 to 100
2,"COC(=O)c1ccc(CN(Cc2ccc(C(F)(F)P(=O)(O)O)cc2)c2nnc(-c3cccc(Oc4ccccc4)c3)o2)cc1 [4-({[4-(Difluoro-phosphono-methyl)-benzyl]-[5-(3-phenoxy-phenyl)-[1,3,4]oxadiazol-2-yl]-amino}-methyl)-benzoic acid methyl ester]",10 to 100
3,"O=C(O)c1ccc(CN(Cc2ccc(C(F)(F)P(=O)(O)O)cc2)c2nnc(-c3cccc(Oc4ccccc4)c3)o2)cc1 [4-({[4-(Difluoro-phosphono-methyl)-benzyl]-[5-(3-phenoxy-phenyl)-[1,3,4]oxadiazol-2-yl]-amino}-methyl)-benzoic acid]",1 to 10
4,"O=P(O)(O)C(F)(F)c1ccc(CN(c2ccc(Cl)c(Cl)c2)c2ncc(-c3ccccc3)o2)cc1Br [Example 1, [(2-Bromo-4-{[(3,4-dichloro-phenyl)-(5-phenyl-oxazol-2-yl)-amino]-methyl}-phenyl)-difluoro-methyl]-phosphonic acid]",1 to 10
5,"COC(=O)c1ccc(-c2cnc(N(Cc3ccc(C(F)(F)P(=O)(O)O)c(Br)c3)c3ccccc3)o2)cc1 [Example 4, 4-(2-{[3-Bromo-4-(difluoro-phosphono-methyl)-benzyl]-phenyl-amino}-oxazol-5-yl)-benzoic acid methyl ester]",1 to 10
6,"CCOP(=O)(OCC)C(F)(F)c1ccc(CN(c2ccc(Cl)c(Cl)c2)c2ncc(-c3ccc(Oc4ccc(C(=O)OC)cc4)cc3)o2)cc1Br [Example 7, 4-(4-{2-[{3-Bromo-4-[(diethoxy-phosphoryl)-difluoro-methyl]-benzyl}-(3,4-dichloro-phenyl)-amino]-oxazol-5-yl}-phenoxy)-benzoic acid methyl ester]",10 to 100
7,"CCOP(=O)(OCC)C(F)(F)c1ccc(CN(c2ccc(Cl)c(Cl)c2)c2ncc(-c3ccc(S(C)(=O)=O)cc3)o2)cc1Br [Example 8, {[2-Bromo-4-({(3,4-dichloro-phenyl)-[5-(4-methanesulfonyl-phenyl)-oxazol-2-yl]-amino}-methyl)-phenyl]-difluoro-methyl}-phosphonic acid diethyl ester]",10 to 100
8,"CCOP(=O)(O)C(F)(F)c1ccc(CN(c2ccc(Cl)c(Cl)c2)c2ncc(-c3ccc(S(C)(=O)=O)cc3)o2)cc1Br [Example 9, {[2-Bromo-4-({(3,4-dichloro-phenyl)-[5-(4-methanesulfonyl-phenyl)-oxazol-2-yl]-amino}-methyl)-phenyl]-difluoro-methyl}-phosphonic acid monoethyl ester]",10 to 100
9,"COC(=O)c1ccc(Oc2ccc(-c3cnc(N(Cc4ccc(C(F)(F)P(=O)(O)O)c(Br)c4)c4ccc(Cl)c(Cl)c4)o3)cc2)cc1 [Example 10, 4-(4-{2-[[3-Bromo-4-(difluoro-phosphono-methyl)-benzyl]-(3,4-dichloro-phenyl)-amino]-oxazol-5-yl}-phenoxy)-benzoic acid methyl ester]",1 to 10
10,"CC(C)(C)C(=O)OCOP(=O)(O)C(F)(F)c1ccc(CN(c2ccc(Cl)c(Cl)c2)c2ncc(-c3ccc(S(C)(=O)=O)cc3)o2)cc1Br [Example 11, 2,2-Dimethyl-propionic acid {[2-bromo-4-({(3,4-dichloro-phenyl)-[5-(4-methanesulfonyl-phenyl)-oxazol-2-yl]-amino}-methyl)-phenyl]-difluoro-methyl}-hydroxy-phosphinoyloxymethyl ester]",10 to 100
11,"COC(=O)C(Oc1cccc(-c2cnc(N(Cc3ccc(C(F)(F)P(=O)(O)O)c(Br)c3)c3ccc(Cl)c(Cl)c3)o2)c1)c1ccccc1 (centres unmarked) [Example 13, (3-{2-[[3-Bromo-4-(difluoro-phosphono-methyl)-benzyl]-(3,4-dichloro-phenyl)-amino]-oxazol-5-yl}-phenoxy)-phenyl-acetic acid methyl ester]",1 to 10
12,"COC(=O)c1ccccc1Oc1cccc(-c2cnc(N(Cc3ccc(C(F)(F)P(=O)(O)O)c(Br)c3)c3ccc(Cl)c(Cl)c3)o2)c1 [Example 14, 2-(3-{2-[[3-Bromo-4-(difluoro-phosphono-methyl)-benzyl]-(3,4-dichloro-phenyl)amino]-oxazol-5-yl}-phenoxy)-benzoic acid methyl ester]",1 to 10
13,"COC(=O)c1ccccc1-c1ccc(-c2cnc(N(Cc3ccc(C(F)(F)P(=O)(O)O)c(Br)c3)c3ccc(Cl)c(Cl)c3)o2)cc1 [Example 15, 4′-{2-[[3-Bromo-4-(difluoro-phosphono-methyl)-benzyl]-(3,4-dichloro-phenyl)-amino]-oxazol-5-yl}-biphenyl-2-carboxylic acid methyl ester]",1 to 10

# Other lines, results leading:
row,IC50 [µM],Compound
1,0.5 to 1,"COC(=O)c1ccc(-c2cnc(N(Cc3ccc(C(F)(F)P(=O)(O)O)c(Br)c3)c3ccc(Cl)c(Cl)c3)o2)cc1 [Example 2, 4-{2-[[3-Bromo-4-(difluoro-phosphono-methyl)-benzyl]-(3,4-dichloro-phenyl)-amino]-oxazol-5-yl}-benzoic acid methyl ester]"
2,< 0.1,"O=C(O)c1ccc(-c2cnc(N(Cc3ccc(C(F)(F)P(=O)(O)O)c(Br)c3)c3ccc(Cl)c(Cl)c3)o2)cc1 [Example 3, 4-{2-[[3-Bromo-4-(difluoro-phosphono-methyl)-benzyl]-(3,4-dichloro-phenyl)-amino]-oxazol-5-yl}-benzoic acid]"
3,0.1 to 0.5,"O=C(O)c1ccc(-c2cnc(N(Cc3ccc(C(F)(F)P(=O)(O)O)c(Br)c3)c3ccccc3)o2)cc1 [Example 5, 4-(2-{[3-Bromo-4-(difluoro-phosphono-methyl)-benzyl]-phenyl-amino}-oxazol-5-yl)-benzoic acid]"
4,< 0.1,"CS(=O)(=O)c1ccc(-c2cnc(N(Cc3ccc(C(F)(F)P(=O)(O)O)c(Br)c3)c3ccc(Cl)c(Cl)c3)o2)cc1 [Example 6, {[2-Bromo-4-({(3,4-dichloro-phenyl)-[5-(4-methanesulfonyl-phenyl)-oxazol-2-yl]-amino}-methyl)-phenyl]-difluoro-methyl}-phosphonic acid]"
5,0.1 to 0.5,"O=C(O)c1ccc(Oc2ccc(-c3cnc(N(Cc4ccc(C(F)(F)P(=O)(O)O)c(Br)c4)c4ccc(Cl)c(Cl)c4)o3)cc2)cc1 [Example 12, 4-(4-{2-[[3-Bromo-4-(difluoro-phosphono-methyl)-benzyl]-(3,4-dichloro-phenyl)-amino]-oxazol-5-yl}-phenoxy)-benzoic acid]"
6,< 0.1,"O=C(O)C(Oc1cccc(-c2cnc(N(Cc3ccc(C(F)(F)P(=O)(O)O)c(Br)c3)c3ccc(Cl)c(Cl)c3)o2)c1)c1ccccc1 (centres unmarked) [Example 16, (3-{2-[[3-Bromo-4-(difluoro-phosphono-methyl)-benzyl]-(3,4-dichloro-phenyl)-amino]-oxazol-5-yl}-phenoxy)-phenyl-acetic acid]"
7,0.1 to 0.5,"O=C(O)c1ccccc1-c1ccc(-c2cnc(N(Cc3ccc(C(F)(F)P(=O)(O)O)c(Br)c3)c3ccc(Cl)c(Cl)c3)o2)cc1 [Example 17, 4′-{2-[[3-Bromo-4-(difluoro-phosphono-methyl)-benzyl]-(3,4-dichloro-phenyl)-amino]-oxazol-5-yl}-biphenyl-2-carboxylic acid]"
